According to patent US20090221603A1, “HETEROCYCLIC AMIDE DERIVATIVES AS CALCIUM CHANNEL BLOCKERS” (priority 2005, published 2009):
Like-named read-outs stand apart in the source and are kept apart here.

Tests used:
[1] = tested on: T-type over L-type channels; conditions: cited from earlier work
[2] = target: T1, human α1G T-type channels (Homo sapiens, UniProt O43497); experiment: T-type calcium channel block, patch clamp in HEK cell lines; format: cell-based; conditions: mainly non-inactivated protocol; HEK cells expressing human α1G; read-out: IC50 @ −80 mV
T1 construct: expressed in transfected cells

[3] = target: T2, rat brain N-type calcium channel subunits (α1B+α2δ+β1b cDNA subunits) (Rattus norvegicus, UniProt Q02294); experiment: N-type calcium channel block, whole cell patch clamp in HEK 293 cells; format: cell-based; conditions: holding potential −80 mV to +10 mV
T2 construct: expressed in transfected cells; host or cells: HEK 293 (stably, alternatively transiently, transfected)
Procedure: A. Transformation of HEK Cells: • N-type calcium channel blocking activity was assayed in human embryonic kidney cells, HEK 293, stably transfected with the rat brain N-type calcium channel subunits (α1B+α2δ+β1b cDNA subunits). Alternatively, N-type calcium channels (α1B+α2δ+β1b cDNA subunits), L-type channels (α1C+α2δ+β1b cDNA subunits) and P/Q-type channels (α1A+α2δ+β1b cDNA subunits) were transiently expressed in HEK 293 cells. Briefly, cells were cultured in Dulbecco's modified eagle medium (DMEM) supplemented with 10% fetal bovine serum, 200 U/ml penicillin and 0.2 mg/ml streptomycin at 37° C. with 5% CO2. At 85% confluency cells were split with 0.25% trypsin/1 mM EDTA and plated at 10% confluency on glass coverslips. At 12 hours the medium was replaced and the cells transiently transfected using a standard calcium phosphate protocol and the appropriate calcium channel cDNA's. Fresh DMEM was supplied and the cells transferred to 28° C./5% CO2. Cells were incubated for 1 to 2 days prior to whole cell recording.
B. Measurement of Inhibition
Whole cell patch clamp experiments were performed using an Axopatch 200B amplifier (Axon Instruments, Burlingame, Calif.) linked to a personal computer equipped with pCLAMP software. The external and internal recording solutions contained, respectively, 5 mM BaCl2, 10 mM MgCl2, 10 mM HEPES, 40 mM TEACl, 10 mM glucose, 87.5 mM CsCl (pH 7.2) and 108 mM CsMS, 4 mM MgCl2, 9 mM EGTA, 9 mM HEPES (pH 7.2). Currents were typically elicited from a holding potential of −80 mV to +10 mV using Clampex software (Axon Instruments). Typically, currents were first elicited with low frequency stimulation (0.067 Hz) and allowed to stabilize prior to application of the compounds. The compounds were then applied during the low frequency pulse trains for two to three minutes to assess tonic block, and subsequently the pulse frequency was increased to 0.2 Hz to assess frequency dependent block. Data were analyzed using Clampfit (Axon Instruments) and SigmaPlot 4.0 (Jandel Scientific).

[4] = tested on: tactile allodynia after L5/L6 spinal nerve ligation; experiment: Spinal nerve ligation model of neuropathic pain, tactile allodynia (von Frey); format: in vivo, rat; conditions: SNL rats; orally in propylene glycol solution, 300 mg/kg
Description: Spinal nerve ligation (SNL) injury was induced using the procedure of Kim and Chung, (Kim, S. H., et al., Pain (1992) 50:355-363) in male Sprague-Dawley rats (Harlan; Indianapolis, Ind.) weighing 200 to 300 grams. Anesthesia was induced with 2% halothane in O2 at 2 L/min and maintained with 0.5% halothane in O2. After surgical preparation of the rats and exposure of the dorsal vertebral column from L4 to S2, the L5 and L6 spinal nerves were tightly ligated distal to the dorsal root ganglion using 4-0 silk suture. The incision was closed, and the animals were allowed to recover for 5 days. […] Sham control rats underwent the same operation and handling as the experimental animals, but without SNL. The assessment of tactile allodynia consisted of measuring the withdrawal threshold of the paw ipsilateral to the site of nerve injury in response to probing with a series of calibrated von Frey filaments. Each filament was applied perpendicularly to the plantar surface of the ligated paw of rats kept in suspended wire-mesh cages. Measurements were taken before and after administration of drug or vehicle. Withdrawal threshold was determined by sequentially increasing and decreasing the stimulus strength (“up and down” method), analyzed using a Dixon non-parametric test (Chaplan S. R., et al., J Pharmacol Exp Ther (1994) 269:1117-1123), and expressed as the mean withdrawal threshold.

[5] = low frequency stimulation 0.067 Hz (tonic block), read-out: IC50 @ 0.067 Hz
[6] = pulse frequency 0.2 Hz (frequency dependent block), read-out: IC50 @ 0.2 Hz

T2 sequence (Q02294 whole entry): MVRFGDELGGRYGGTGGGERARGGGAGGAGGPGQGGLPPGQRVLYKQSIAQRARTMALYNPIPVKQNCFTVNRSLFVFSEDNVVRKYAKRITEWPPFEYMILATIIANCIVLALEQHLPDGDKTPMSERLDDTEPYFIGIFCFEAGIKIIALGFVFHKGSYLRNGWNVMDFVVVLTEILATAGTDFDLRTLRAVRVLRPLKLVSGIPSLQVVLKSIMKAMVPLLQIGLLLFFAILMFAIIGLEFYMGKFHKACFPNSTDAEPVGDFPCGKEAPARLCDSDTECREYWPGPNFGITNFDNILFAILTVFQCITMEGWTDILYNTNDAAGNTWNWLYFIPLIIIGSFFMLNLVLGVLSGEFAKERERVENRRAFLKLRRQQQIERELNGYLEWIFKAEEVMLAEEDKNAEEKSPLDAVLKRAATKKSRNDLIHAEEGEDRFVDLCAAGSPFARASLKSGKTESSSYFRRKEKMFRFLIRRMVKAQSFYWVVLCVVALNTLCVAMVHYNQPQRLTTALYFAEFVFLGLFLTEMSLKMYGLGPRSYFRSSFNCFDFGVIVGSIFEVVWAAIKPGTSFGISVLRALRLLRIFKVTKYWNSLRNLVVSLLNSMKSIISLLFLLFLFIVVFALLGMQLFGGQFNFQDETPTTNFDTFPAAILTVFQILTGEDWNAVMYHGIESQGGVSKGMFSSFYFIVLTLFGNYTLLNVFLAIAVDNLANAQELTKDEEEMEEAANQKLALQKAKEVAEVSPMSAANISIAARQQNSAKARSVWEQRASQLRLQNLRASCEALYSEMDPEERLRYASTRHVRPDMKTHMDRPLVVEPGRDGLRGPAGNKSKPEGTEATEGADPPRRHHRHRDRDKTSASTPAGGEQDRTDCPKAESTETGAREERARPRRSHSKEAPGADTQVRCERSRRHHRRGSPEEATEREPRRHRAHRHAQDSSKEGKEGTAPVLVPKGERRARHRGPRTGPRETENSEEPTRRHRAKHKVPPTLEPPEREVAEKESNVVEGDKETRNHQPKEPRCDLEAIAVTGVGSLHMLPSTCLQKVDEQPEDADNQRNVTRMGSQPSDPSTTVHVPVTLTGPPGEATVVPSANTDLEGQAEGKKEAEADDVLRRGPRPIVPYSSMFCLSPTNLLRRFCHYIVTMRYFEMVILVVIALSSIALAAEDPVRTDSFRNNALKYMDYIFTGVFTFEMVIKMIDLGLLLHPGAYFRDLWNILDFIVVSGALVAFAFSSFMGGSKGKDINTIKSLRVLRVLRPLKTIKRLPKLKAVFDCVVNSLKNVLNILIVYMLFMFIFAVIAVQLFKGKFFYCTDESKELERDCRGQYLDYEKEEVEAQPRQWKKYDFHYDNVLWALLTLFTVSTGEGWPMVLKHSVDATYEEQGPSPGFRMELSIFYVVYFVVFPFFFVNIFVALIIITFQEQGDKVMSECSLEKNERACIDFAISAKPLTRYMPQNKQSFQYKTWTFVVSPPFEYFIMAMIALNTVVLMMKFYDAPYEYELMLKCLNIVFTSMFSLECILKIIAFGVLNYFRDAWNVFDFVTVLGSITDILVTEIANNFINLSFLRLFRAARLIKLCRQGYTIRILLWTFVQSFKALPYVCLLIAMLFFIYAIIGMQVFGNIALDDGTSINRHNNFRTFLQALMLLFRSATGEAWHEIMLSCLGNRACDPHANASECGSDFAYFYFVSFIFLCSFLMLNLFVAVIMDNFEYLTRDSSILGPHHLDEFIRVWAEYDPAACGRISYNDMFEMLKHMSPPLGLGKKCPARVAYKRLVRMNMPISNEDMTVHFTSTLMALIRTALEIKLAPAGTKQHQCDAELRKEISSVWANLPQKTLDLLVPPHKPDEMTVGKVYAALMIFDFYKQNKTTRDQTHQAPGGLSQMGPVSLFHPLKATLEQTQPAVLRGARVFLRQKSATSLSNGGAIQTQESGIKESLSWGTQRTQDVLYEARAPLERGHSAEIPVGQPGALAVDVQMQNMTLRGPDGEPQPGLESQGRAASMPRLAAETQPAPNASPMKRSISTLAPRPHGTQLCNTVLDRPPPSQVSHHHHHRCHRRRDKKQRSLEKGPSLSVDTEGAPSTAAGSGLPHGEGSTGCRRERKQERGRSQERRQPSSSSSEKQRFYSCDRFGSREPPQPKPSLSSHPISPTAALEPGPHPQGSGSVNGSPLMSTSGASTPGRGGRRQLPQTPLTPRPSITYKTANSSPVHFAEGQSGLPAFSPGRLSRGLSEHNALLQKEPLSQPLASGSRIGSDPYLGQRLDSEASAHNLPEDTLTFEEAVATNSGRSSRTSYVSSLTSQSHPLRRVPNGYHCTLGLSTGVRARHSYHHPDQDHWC
T2 sequence (P54290 25-944 partner limits assumed): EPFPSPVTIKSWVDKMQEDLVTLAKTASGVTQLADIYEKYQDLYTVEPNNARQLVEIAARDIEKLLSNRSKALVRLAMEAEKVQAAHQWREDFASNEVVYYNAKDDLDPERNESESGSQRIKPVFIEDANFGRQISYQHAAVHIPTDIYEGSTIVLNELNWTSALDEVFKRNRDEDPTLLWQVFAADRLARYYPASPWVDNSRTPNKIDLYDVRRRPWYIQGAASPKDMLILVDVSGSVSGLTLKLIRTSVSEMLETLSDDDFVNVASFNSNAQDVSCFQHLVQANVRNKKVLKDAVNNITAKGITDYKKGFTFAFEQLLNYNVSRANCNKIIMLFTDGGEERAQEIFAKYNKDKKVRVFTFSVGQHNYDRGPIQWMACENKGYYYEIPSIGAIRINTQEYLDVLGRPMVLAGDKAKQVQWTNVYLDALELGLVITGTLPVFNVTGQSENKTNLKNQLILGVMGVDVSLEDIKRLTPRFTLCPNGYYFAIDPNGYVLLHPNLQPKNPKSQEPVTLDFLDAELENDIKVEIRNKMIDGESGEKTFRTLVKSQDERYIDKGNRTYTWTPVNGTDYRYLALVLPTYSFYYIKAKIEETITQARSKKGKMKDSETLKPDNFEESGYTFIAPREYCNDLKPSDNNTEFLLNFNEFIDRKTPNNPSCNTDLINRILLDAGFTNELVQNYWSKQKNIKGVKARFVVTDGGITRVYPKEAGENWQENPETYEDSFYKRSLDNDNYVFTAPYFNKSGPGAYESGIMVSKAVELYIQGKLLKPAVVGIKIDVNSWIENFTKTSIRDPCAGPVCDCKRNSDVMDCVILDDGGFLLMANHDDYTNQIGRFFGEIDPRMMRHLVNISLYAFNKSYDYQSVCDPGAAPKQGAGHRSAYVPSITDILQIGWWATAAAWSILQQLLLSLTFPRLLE
T2 sequence (P54290 945-1091 partner limits assumed): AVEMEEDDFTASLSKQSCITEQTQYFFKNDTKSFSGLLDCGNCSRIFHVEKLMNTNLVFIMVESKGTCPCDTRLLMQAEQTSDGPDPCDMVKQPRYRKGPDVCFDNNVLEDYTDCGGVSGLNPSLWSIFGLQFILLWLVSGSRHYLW
T2 sequence (P54283 whole entry partner): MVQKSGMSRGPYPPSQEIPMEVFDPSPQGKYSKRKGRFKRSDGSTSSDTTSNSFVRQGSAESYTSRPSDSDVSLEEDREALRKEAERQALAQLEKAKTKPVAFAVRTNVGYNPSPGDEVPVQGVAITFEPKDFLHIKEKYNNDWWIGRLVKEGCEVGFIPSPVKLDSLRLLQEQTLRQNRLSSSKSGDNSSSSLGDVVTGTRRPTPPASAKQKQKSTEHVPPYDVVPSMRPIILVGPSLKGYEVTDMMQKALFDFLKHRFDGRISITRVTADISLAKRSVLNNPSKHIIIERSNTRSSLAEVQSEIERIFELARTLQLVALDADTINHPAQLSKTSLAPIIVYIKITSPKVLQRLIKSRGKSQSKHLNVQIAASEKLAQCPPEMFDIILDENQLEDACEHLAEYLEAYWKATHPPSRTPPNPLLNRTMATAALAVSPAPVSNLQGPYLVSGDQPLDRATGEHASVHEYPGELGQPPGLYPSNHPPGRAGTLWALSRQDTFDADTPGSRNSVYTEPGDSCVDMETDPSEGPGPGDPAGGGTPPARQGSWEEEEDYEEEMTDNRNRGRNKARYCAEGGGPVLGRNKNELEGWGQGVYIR

Row | SMILES | IC50 [2] | IC50 [3, 5] | IC50 [3, 6] | selectivity for T-type over L-type channels [1] | reversal of allodynia [4]
1 | COCC(=O)O[C@]1(CCN(C)CCCc2nc3ccccc3[nH]2)CCc2cc(F)ccc2[C@@H]1C(C)C [Mibefradil] | – | – | – | 10-30 fold | –
2 | CN(CC(=O)N1CCN(C(c2ccccc2)c2ccccc2)CC1)C(c1ccccc1)c1ccccc1 [Compound 2, 2-benzhydryl(methyl)amino-1-(4-benzhydrylpiperazin-1-yl)ethanone] | 2900 nM | 520 nM | 310 nM | – | –
3 | O=C(COC(c1ccccc1)c1ccccc1)N1CCN(C(c2ccccc2)c2ccccc2)CC1 [Compound 30, 2-(benzhydryloxy)-1-(4-benzhydrylpiperazin-1-yl)ethanone] | 590 nM | 490 nM | 270 nM | – | –
4 | O=C(COc1ccc(Cl)cc1Cl)N1CCN(C(c2ccccc2)c2ccccc2)CC1 [Compound 26, 1-(4-benzhydrylpiperazin-1-yl)-2-(2,4-dichlorophenoxy)ethanone] | 1260 nM | 250 nM | 190 nM | – | –
5 | O=C(CNC(c1ccccc1)c1ccccc1)N1CCN(C(c2ccc(F)cc2)c2ccc(F)cc2)CC1 [Compound 29, 2-(benzhydrylamino)-1-(4-(bis(4-fluorophenyl)methyl)piperazin-1-yl)ethanone] | 9690 nM | 270 nM | 140 nM | – | –

Continued by falling IC50 [2], values first:

Row | IC50 [2] | IC50 [3, 5] | IC50 [3, 6] | SMILES | selectivity for T-type over L-type channels [1] | reversal of allodynia [4]
6 | 2000 nM | 170 nM | 120 nM | CN(CC(=O)N1CCN(C(c2ccccc2)c2ccc(F)cc2)CC1)C(c1ccccc1)c1ccccc1 (centres unmarked) [Compound 6, 2-benzhydryl(methyl)amino-1-(4-((4-fluorophenyl)(phenyl)methyl)piperazin-1-yl)ethanone] | – | –
7 | 370 nM | 490 nM | 290 nM | O=C(CNC(c1ccccc1)c1ccccc1)N1CCN(C(c2ccccc2)c2ccccc2)C(CO)C1 (centres unmarked) [Compound 49, 2-benzhydrylamino-1-(4-benzhydryl-3-hydroxymethylpiperazin-1-yl)ethanone] | – | complete reversal of allodynia
8 | 80 nM | 140 nM | 80 nM | O=C(CNC(c1ccccc1)c1ccccc1)N1CCN(C(c2ccccc2)c2ccccc2)CC1 [Compound 1, 2-benzhydrylamino-1-(4-benzhydrylpiperazin-1-yl)ethanone] | – | –
